Test results as given in patent US7615361B2, “Toxicity screening methods” (Ceetox, Inc., priority 2006, dated 2009).

Legend:
[1] = Intracellular total glutathione (GSH); conditions: human
Method: (§1) Intracellular Glutathione (GSH) Levels: Intracellular glutathione levels were determined essentially as described by Griffith (1980) with modifications. At the end of the exposure period, the medium was removed from the cells and metaphosphoric acid (MPA) was added to each well. Plates were then shaken for 5 min at room temperature and stored at −20° C. until needed.
(§2) The sample plates were thawed just prior to analysis and centrifuged at >2000×g for at least 2 min. Sample aliquots were removed and transferred to a clean 96-well plate along with appropriate standard curve controls. Sample pH was neutralized just prior to analysis and each well received an aliquot of sodium phosphate reaction buffer containing EDTA, DTNB, NADPH, and glutathione reductase. The plates were mixed for 15-30 min at room temperature and glutathione content was determined calorimetrically with a Packard Fusion or equivalent reader at 415 nm.
(§3) Intracellular Glutathione (GSH) Levels: The assay is based on the concept that all GSH is oxidized to GSSG by DTNB reagent. Two molecules of GSH are required to make one molecule of GSSG. Total GSH was determined by reducing GSSG to 2GSH with glutathione reductase. A standard curve was prepared with oxidized glutathione (GSSG) over a range of concentrations. These concentrations are then converted to glutathione equivalents (GSX) essentially by multiplying the GSSG standard concentrations by 2. The amount of GSX expressed as pmoles/well was determined using the standard curve and regression analysis.
(§4) The test compound consisted of two parts mixed in a constant ratio of 5:1. The final test mixture consisted of Test mix 1 and Test mix 2, which were received as frozen solutions. The test mixture was tested in a ratio of 5:1 COMP A in five different cell types which included the following: SK-MEL28, human hepatocytes, HUVEC, C32, and NHEM cells. Cells were seeded into 96-well plates and cultured in medium containing 10% bovine serum. Following an equilibration period of 48 hr, the cells were treated with the test compound mix at concentrations of COMP A (μg/mL)=(250:50), (125:25), (25:12.5), (12.5:2.5), (2.5:1.25), (1.25:0.25), and (0.25:0.05) for 24 hr (overnight) at 37° C. in 5% CO2. […] Following an equilibration period of 4 hr, the cells were treated with the test compound mix at concentrations of COMP A (μg/mL)=(250:50), (125:25), (25:12.5), (12.5:2.5), (2.5:1.25), (1.25:0.25), and (0.25:0.05) for 24 hr (overnight) at 37° C. in 5% CO2.
(§5) Experimental Protocol: The test compounds were shipped on dry ice for testing. The compounds were stored frozen at −80° C. until needed. Dosing solutions were prepared in complete culture medium. SK-MEL28, human hepatocytes, HUVEC, C32, and NHEM cells were used as the test systems. Cells were seeded into 96-well plates and allowed to equilibrate for approximately 48 hr. Following the equilibration period the cells were exposed to the test compound mix at concentrations of COMP A (μg/mL)=(250:50), (125:25), (25:12.5), (12.5:2.5), (2.5:1.25), (1.25:0.25), and (0.25:0.05). […] Following the exposure period, the cells or their supernatant (culture medium) were analyzed for changes in cell proliferation, membrane leakage, mitochondrial function, oxidative stress, and apoptosis. The resultant exposure concentration response curves were graphed and analyzed for determining the concentration that produced a half maximal response or TC50.

SK-MEL28 cells = test: Intracellular total glutathione (GSH)
Method: as §1, §2, §3, §4, §5

human hepatocytes = test: Intracellular total glutathione (GSH); conditions: 24 HR
Method: as §1, §2, §3, §4
(§6) Experimental Protocol: The test compounds were shipped on dry ice for testing. The compounds were stored frozen at −80° C. until needed. Dosing solutions were prepared in complete culture medium. SK-MEL28, human hepatocytes, HUVEC, C32, and NHEM cells were used as the test systems. Cells were seeded into 96-well plates and allowed to equilibrate for approximately 48 hr. Following the equilibration period the cells were exposed to the test compound mix at concentrations of COMP A (μg/mL)=(250:50), (125:25), (25:12.5), (12.5:2.5), (2.5:1.25), (1.25:0.25), and (0.25:0.05). Solubility was determined by Nephalometry techniques immediately after dosing and prior to harvesting the cells at 24 hr. Following the exposure period, the cells or their supernatant (culture medium) were analyzed for changes in cell proliferation, membrane leakage, mitochondrial function, oxidative stress, and apoptosis. The resultant exposure concentration response curves were graphed and analyzed for determining the concentration that produced a half maximal response or TC50.

C32 cells = test: Intracellular total glutathione (GSH); conditions: C32, 24 HR
Method: as §1, §2, §3, §4, §6

HUVEC = test: Intracellular total glutathione (GSH); conditions: HUVEC, 24 HR
Method: as §1, §2, §3, §4, §6

[2] = Cell number (propidium iodide); assay type: cell-based; conditions: human, read-out: Cell Number TC50; for CC50 at 72 h: SK-MEL28 cells, SK-MEL28, 72 HR, run #2
Method: Cell Proliferation: Cell proliferation in each well was measured with propidium iodide (PI). This specific nucleic acid binding dye fluoresces when intercalated within the nucleic acids. The 15 nm shift enhances PI fluorescence approximately 20 times while the excitation maxima are shifted 30-40 nm. During method development experiments, it was determined that Triton-X-100 was the best solution to permeabilize the H4IIE cells thereby allowing the PI access to intracellular RNA and DNA. Fluorescence was measured using a Packard Fusion plate reader or equivalent reader at 540 nm excitation and 610 nm emission.
Cell Proliferation: After incubation, the test compound was removed and Triton X-100 solution containing propidium iodide is added. The plate was incubated and read on a fluorescent plate reader. Data was collected as relative fluorescent units (RFU). The blank was subtracted from the final well RFU. It represents the average of the first and last columns which contain no cells on that particular plate. The controls are untreated cells allowed to grow on the same plate. The compounds are represented by several separate RFU data points for each of the tested concentrations. The percent change relative to controls was calculated by dividing the average RFU by the control cell RFU and multiplying by 100.
(§7) Dosing solutions were prepared in complete culture medium.

MTT reduction [3] = assay type: cell-based; conditions: read-out: MTT TC50
Method: (§8) Tetrazolium Dye Reduction: 3-[4,5-dimethylthiazol-2-yl]
as §7

MTT reduction [4] = conditions: human; for CC50 at 24 h: MTT TC50, SK-MEL28, 24 HR
Method: as §8
The test compound consisted of two parts mixed in a constant ratio of 5:1. The final test mixture consisted of Test mix 1 and Test mix 2, which were received as frozen solutions. The test mixture was tested in a ratio of 5:1 COMP A in five different cell types which included the following: SK-MEL28, human hepatocytes, HUVEC, C32, and NHEM cells. Cells were seeded into 96-well plates and cultured in medium containing 10% bovine serum. […]
as §6

[5] = SK-MEL28, 24 HR, COMP A (LOW) / controls #2
[6] = SK-MEL28, 72 HR, COMP A (LOW) / controls #2

| SMILES | CC50 at 24 h ([1]; SK-MEL28 cells) [nM] | CC50 at 72 h ([1]; SK-MEL28 cells) [nM] | Percent Change in Total GSH (SK-MEL28 cells; SK-MEL28, 24 HR) [%] | Percent Change in Total GSH (SK-MEL28 cells; [5]) [%] | Percent Change in Total GSH (SK-MEL28 cells; [6]) [%] | Percent Change in Total GSH (human hepatocytes) [%] | Percent Change in Total GSH (C32 cells) [%] | Percent Change in Total GSH (HUVEC) [%] | CC50 at 24 h ([2]; HUVEC) [nM] | CC50 at 72 h [2] [nM] | CC50 at 24 h (MTT reduction [3]; human, C32 cells, C32, 24 HR) [nM] | CC50 at 24 h (MTT reduction [3]; human, HUVEC) [nM] | CC50 at 24 h (MTT reduction [4]; SK-MEL28 cells) [nM] | CC50 at 24 h (MTT reduction [4]; SK-MEL28 cells, run #2) [nM] | CC50 at 72 h (MTT reduction [4]; SK-MEL28 cells, MTT TC50, SK-MEL28, 72 HR, run #2) [nM] | CC50 at 72 h [1] [nM] | CC50 at 24 h (MTT reduction [3]; human hepatocytes) [nM] | CC50 at 72 h (MTT reduction [4]) [nM] |
| --- | --- | --- | --- | --- | --- | --- | --- | --- | --- | --- | --- | --- | --- | --- | --- | --- | --- | --- |
| CC[C@@]1(O)C(=O)OCc2c1cc1n(c2=O)Cc2cc3ccccc3nc2-1 [CAMPTOTHECIN, Camptothecin] | 10000 | 100 | −46.0 | −57.9 | −88.8 | −69.9 | −41.1 | −85.8 | 85000 | 100 | 213000 | 41000 | 241000 | 249000 | 100 |  |  |  |
| C=C(C)[C@H]1Cc2c(ccc3c2O[C@@H]2COc4cc(OC)c(OC)cc4[C@@H]2C3=O)O1 [ROTENONE, Rotenone] |  |  | 52.8 | 49.9 | 85.1 | 95.9 | 12.9 | 11.3 |  | 1000 |  |  |  |  |  | 100 | 3000 | 200 |
